According to patent publication US20230049952A1, “METHODS AND COMPOUNDS FOR RESTORING MUTANT P53 FUNCTION” (PMV Pharmaceuticals, Inc., priority 2020, published 2023):

Test system: NF-κB signaling pathway in MT373 tumors
Test: MT373 syngeneic sarcoma model: mouse NF-κB signaling pathway profiling panel
Format: in vivo

## CCn1c(C#CCNc2ccccc2)cc2cc(CNC3CCN(C)CC3)ccc21 [Compound 1, 1-Anilino-3-{1-ethyl-5-[(1-methyl-4-piperidylamino)methyl]-1H-indol-2-yl}-2-propyne]
150 mg/kg BIDx1, 72 h
  Card10 fold increase over or percent reduction vs vehicle control: 1.39 ± 0.49 fold or %
  Card11 fold increase over or percent reduction vs vehicle control: 1.52 ± 0.54 fold or %
  Casp1 fold increase over or percent reduction vs vehicle control: 9.73 ± 31.75 fold or %
  Casp8 fold increase over or percent reduction vs vehicle control: 1.04 ± 0.13 fold or %
  Ccl2 fold increase over or percent reduction vs vehicle control: 52.53 ± 13.14 fold or %
  Ccl5 fold increase over or percent reduction vs vehicle control: 2.54 ± 37.88 fold or %
  Cd27 fold increase over or percent reduction vs vehicle control: 1.53 ± 0.39 fold or %
  Cd40 fold increase over or percent reduction vs vehicle control: 20.33 ± 32.50 fold or %
  Cflar fold increase over or percent reduction vs vehicle control: 1.10 ± 0.20 fold or %
  Chuk fold increase over or percent reduction vs vehicle control: 5.62 ± 25.53 fold or %
  Crebbp fold increase over or percent reduction vs vehicle control: 1.12 ± 0.15 fold or %
  Csf1 fold increase over or percent reduction vs vehicle control: 3.08 ± 4.37 fold or %
  Csf2 fold increase over or percent reduction vs vehicle control: 5.23 ± 19.46 fold or %
  Csf3 fold increase over or percent reduction vs vehicle control: 46.68 ± 13.40 fold or %
  Egfr fold increase over or percent reduction vs vehicle control: 1.01 ± 0.23 fold or %
  Egr1 fold increase over or percent reduction vs vehicle control: 66.09 ± 6.29 fold or %
  Eif2ak2 fold increase over or percent reduction vs vehicle control: 5.36 ± 11.08 fold or %
  Elk1 fold increase over or percent reduction vs vehicle control: 19.15 ± 11.29 fold or %
  F2r fold increase over or percent reduction vs vehicle control: 14.84 ± 13.77 fold or %
  Fadd fold increase over or percent reduction vs vehicle control: 1.25 ± 0.13 fold or %
  Fasl fold increase over or percent reduction vs vehicle control: 42.85 ± 19.54 fold or %
  Fos fold increase over or percent reduction vs vehicle control: 86.19 ± 1.00 fold or %
  Hmox1 fold increase over or percent reduction vs vehicle control: 1.03 ± 0.18 fold or %
  Icam1 fold increase over or percent reduction vs vehicle control: 1.07 ± 0.18 fold or %
  Ifng fold increase over or percent reduction vs vehicle control: 22.04 ± 33.20 fold or %
  Ikbkb fold increase over or percent reduction vs vehicle control: 1.24 ± 0.27 fold or %
  Ikbke fold increase over or percent reduction vs vehicle control: 2.05 ± 40.34 fold or %
  Ikbkg fold increase over or percent reduction vs vehicle control: 1.06 ± 0.32 fold or %
  Il1a fold increase over or percent reduction vs vehicle control: 63.60 ± 11.55 fold or %
  Il1b fold increase over or percent reduction vs vehicle control: 84.09 ± 6.24 fold or %
  Il1r1 fold increase over or percent reduction vs vehicle control: 9.26 ± 29.81 fold or %
  Il10 fold increase over or percent reduction vs vehicle control: 12.42 ± 41.31 fold or %
  Irak1 fold increase over or percent reduction vs vehicle control: 4.37 ± 14.84 fold or %
  Irak2 fold increase over or percent reduction vs vehicle control: 1.07 ± 0.14 fold or %
  Irf1 fold increase over or percent reduction vs vehicle control: 1.06 ± 0.20 fold or %
  Jun fold increase over or percent reduction vs vehicle control: 26.30 ± 10.41 fold or %
  Lta fold increase over or percent reduction vs vehicle control: 26.12 ± 35.38 fold or %
  Ltbr fold increase over or percent reduction vs vehicle control: 1.05 ± 0.08 fold or %
  Map3k1 fold increase over or percent reduction vs vehicle control: 1.25 ± 0.28 fold or %
  Mapk3 fold increase over or percent reduction vs vehicle control: 1.22 ± 0.17 fold or %
  Myd88 fold increase over or percent reduction vs vehicle control: 37.76 ± 10.69 fold or %
  Nfkb1 fold increase over or percent reduction vs vehicle control: 1.06 ± 0.05 fold or %
  Nfkb2 fold increase over or percent reduction vs vehicle control: 1.30 ± 0.23 fold or %
  Nfkbia fold increase over or percent reduction vs vehicle control: 6.09 ± 32.11 fold or %
  Nod1 fold increase over or percent reduction vs vehicle control: 1.26 ± 0.26 fold or %
  Raf1 fold increase over or percent reduction vs vehicle control: 4.12 ± 9.21 fold or %
  Rel fold increase over or percent reduction vs vehicle control: 1.09 ± 0.23 fold or %
  Rela fold increase over or percent reduction vs vehicle control: 1.01 ± 0.08 fold or %
  Relb fold increase over or percent reduction vs vehicle control: 3.68 ± 22.32 fold or %
  Ripk1 fold increase over or percent reduction vs vehicle control: 1.11 ± 0.09 fold or %
  Ripk2 fold increase over or percent reduction vs vehicle control: 29.79 ± 5.69 fold or %
  Slc20a1 fold increase over or percent reduction vs vehicle control: 36.31 ± 7.52 fold or %
  Smad3 fold increase over or percent reduction vs vehicle control: 1.09 ± 0.18 fold or %
  Stat1 fold increase over or percent reduction vs vehicle control: 1.20 ± 0.20 fold or %
  Tbk1 fold increase over or percent reduction vs vehicle control: 1.17 ± 0.15 fold or %
  Tlr1 fold increase over or percent reduction vs vehicle control: 1.52 ± 0.56 fold or %
  Tlr2 fold increase over or percent reduction vs vehicle control: 1.05 ± 0.16 fold or %
  Tlr3 fold increase over or percent reduction vs vehicle control: 5.46 ± 14.97 fold or %
  Tlr4 fold increase over or percent reduction vs vehicle control: 1.13 ± 0.27 fold or %
  Tlr6 fold increase over or percent reduction vs vehicle control: 1.25 ± 0.31 fold or %
  Tlr9 fold increase over or percent reduction vs vehicle control: 1.78 ± 0.32 fold or %
  Tnf fold increase over or percent reduction vs vehicle control: 3.41 ± 24.15 fold or %
  Tnfaip3 fold increase over or percent reduction vs vehicle control: 10.12 ± 40.91 fold or %
  Tnfrsf1a fold increase over or percent reduction vs vehicle control: 1.18 ± 0.13 fold or %
  Tnfrsf1b fold increase over or percent reduction vs vehicle control: 1.52 ± 0.29 fold or %
  Tnfrsf10b fold increase over or percent reduction vs vehicle control: 1.17 ± 0.22 fold or %
  Tnfsf10 fold increase over or percent reduction vs vehicle control: 1.09 ± 0.21 fold or %
  Tnfsf14 fold increase over or percent reduction vs vehicle control: 1.34 ± 0.30 fold or %
  Tollip fold increase over or percent reduction vs vehicle control: 1.11 ± 0.10 fold or %
  Tradd fold increase over or percent reduction vs vehicle control: 1.10 ± 0.24 fold or %
  Traf2 fold increase over or percent reduction vs vehicle control: 1.17 ± 0.13 fold or %
  Traf3 fold increase over or percent reduction vs vehicle control: 3.24 ± 6.50 fold or %
  Traf5 fold increase over or percent reduction vs vehicle control: 1.24 ± 0.14 fold or %
  Traf6 fold increase over or percent reduction vs vehicle control: 1.17 ± 0.24 fold or %
  Zap70 fold increase over or percent reduction vs vehicle control: 1.52 ± 0.48 fold or %
150 mg/kg BIDx1, […]
  Agt fold increase over or percent reduction vs vehicle control: 50.51 ± 41.92 fold or %
  Akt1 fold increase over or percent reduction vs vehicle control: 8.16 ± 7.88 fold or %
  Atf1 fold increase over or percent reduction vs vehicle control: 1.13 ± 0.30 fold or %
  Atf2 fold increase over or percent reduction vs vehicle control: 1.00 ± 0.20 fold or %
  Bcl2a1a fold increase over or percent reduction vs vehicle control: 4.90 ± 3.38 fold or %
  Bcl2l1 fold increase over or percent reduction vs vehicle control: 1.00 ± 0.07 fold or %
  Bcl3 fold increase over or percent reduction vs vehicle control: 14.36 ± 16.67 fold or %
  Bcl10 fold increase over or percent reduction vs vehicle control: 1.18 ± 0.09 fold or %
  Birc3 fold increase over or percent reduction vs vehicle control: 1.10 ± 0.26 fold or %
  Card10 fold increase over or percent reduction vs vehicle control: 40.14 ± 8.96 fold or %
  Card11 fold increase over or percent reduction vs vehicle control: 1.85 ± 0.30 fold or %
  Casp1 fold increase over or percent reduction vs vehicle control: 1.82 ± 0.71 fold or %
  Casp8 fold increase over or percent reduction vs vehicle control: 1.14 ± 0.07 fold or %
  Ccl2 fold increase over or percent reduction vs vehicle control: 1.47 ± 0.35 fold or %
